Measurements reported in patent US8552013B2, “Heterocyclic compounds based on N6-substituted adenine, methods of their preparation, their use for preparation of drugs, cosmetic preparations and growth regulators, pharmaceutical preparations, cosmetic preparations and growth regulators containing these compounds” (USTAV Experimentalni Botaniky Akademie Ved Ceske Republiky, priority 2001, dated 2013).
Read-outs that look alike come from different tables or passages of the source.

Experiments:
[1] = tested on: tobacco callus Nicotiana tabacum L. cv. Wisconsin 38; assay: Cytokinin-dependent tobacco callus growth; type: cell-based; details: fresh callus weight at the concentration with highest activity
Description: Cytokinin-dependent tobacco callus Nicotiana tabacum L. cv. Wisconsin 38 was maintained at 25° C. in darkness on modified Murashige-Skoog medium, containing per 1 liter: 4 μmol nicotinic acid, 2.4 μmol pyridoxine hydrochloride, 1.2 μmol thiamine, 26.6 μmol glycine, 1.37 μmol glutamine, 1.8 μmol myo-inositol, 30 g of sucrose, 8 g of agar, 5.37 μmol α-naphtylacetic acid (NAA) and 0.5 μmol benzylaminopurine (BAP). Subcultivation was carried out every three weeks. Fourteen days before the bioassay, the callus tissue was transferred to the media without 6-benzylaminopurine (BAP). Biological activity was determined from the increase in fresh callus weight after four weeks of cultivation. Five replicates were prepared for each cytokinin concentration and the entire test was repeated twice. From the obtained data, the concentration with highest activity was selected for each compound tested. Relative activity of the compound at this concentration was calculated (Tab. 6). The activity obtained for 10^−4 M 6-benzylaminopurine (BAP) was postulated as 100%. The cytokinins to be tested were dissolved in dimethylsulfoxide (DMSO) and the solution brought up to 10^−3M with distilled water. This stock was further diluted in the respective media used for the biotest to concentrations ranging from 10^−8M to 10^−4M.

[2] = tested on: breast carcinoma cell line MCF-7; assay: Calcein AM cytotoxicity, MCF7; type: cell-based, human; details: Homo sapiens, read-out: IC 50, MCF7
From the text: (§1) One of the parameters used, as the basis for cytotoxicity assays, is the metabolic activity of viable cells. For example, a microtiter assay, which uses the Calcein AM, is now widely used to quantitate cell proliferation and cytotoxicity. For instance, this assay is used in drug screening programs and in chemosensitivity testing. Because only metabolically active cells cleave Calcein AM, these assays detect viable cells exclusively. The quantity of reduced Calcein AM corresponds to the number of vital cells in the culture.
(§2) The cells were maintained in Nunc/Corning 80 cm^2 plastic tissue culture flasks and cultured in cell culture medium (DMEM with 5 g/l glucose, 2 mM glutamine, 100 U/ml penicillin, 100 μg/ml streptomycin, 10% fetal calf serum and sodium bicarbonate).
(§3) The cell suspensions that were prepared and diluted according to the particular cell type and the expected target cell density (2.500-30.000 cells per well based on cell growth characteristics) were added by pipette (80 μl) into 96/well microtiter plates. Inoculates were allowed a pre-incubation period of 24 hours at 37° C. and 5% CO2 for stabilisation. Four-fold dilutions of the intended test concentration were added at time zero in 20 μl aliquots to the microtiter plate wells. Usually, test compound was evaluated at six 4-fold dilutions. […] All drug concentrations were examined in duplicates. Incubations of cells with the test compounds lasted for 72 hours at 37° C., in 5% CO2 atmosphere and 100% humidity. At the end of incubation period, the cells were assayed by using the Calcein AM. Ten microliters of the stock solution were pipetted into each well and incubated further for 1 hours. Fluorescence (FD) was measured with the Labsystem FIA Reader Fluoroscan Ascent (UK).

[3] = tested on: Amaranthus caudatus cotyledon/hypocotyl explants; assay: Amaranthus bioassay, betacyanin content; type: in vivo; details: betacyanin content at the concentration with highest activity
Description: Standard Amaranthus bioassay was performed with several modifications. The seeds of Amaranthus caudatus var. atropurpurea were surface-sterilised in 10% N-chlorobenzenesulfonamide (w/v) for 10 min and washed 5 times in deionized water. They were placed in 14 cm Petri dishes containing paper tissues saturated with deionized water. After 72 h of cultivation at 25° C. in darkness, the roots of the seedlings were cut off. The explants, consisting of two cotyledons and hypocotyls, were placed in 5 cm Petri dishes on two layers of filter paper soaked in 1 ml of incubation medium containing 10 μmol NA2HPO4-KH2PO4, pH 6.8, 5 μmol tyrosine and the cytokinin to be tested. There were 20 explants per dish. The procedure was carried out under a green safe light in a darkroom. After a 48 h of incubation at 25° C. in darkness, betacyanin was extracted by freezing the explants in 4 ml […] acetic acid. The concentration of betacyanin was determined by comparing the absorbance at 537 nm and 620 nm as follows: ΔA=[…] nm-A620 nm. From the obtained data, the concentration with highest activity was selected for each compound tested. Relative activity of the compound at this concentration was calculated (Tab. 6). […] The values shown in table 8 are means of five replicates and the entire test was repeated twice. The cytokinins to be tested were dissolved in dimethylsulfoxide (DMSO) and the solution brought up to 10^-3M with distilled water. This stock was further diluted in the respective media used for the biotest to concentrations ranging from 10^-8M to 10^-4M.

[4] = tested on: promyelocytic HL-60 leukemia; assay: Calcein AM cytotoxicity, HL60; type: cell-based, human; details: Homo sapiens, read-out: IC 50, HL60
From the text: as §1, §2, §3

[5] = tested on: K-562; assay: Calcein AM cytotoxicity, K-562; type: cell-based; details: Homo sapiens, K562, 72 h, read-out: IC 50, K-562
From the text: as §1, §2, §3

[6] = tested on: Triticum aestivum cv. Hereward leaf tips; assay: Retention of chlorophyll in excised wheat leaf tips; type: in vivo; details: chlorophyll retention at the concentration with highest activity
Description: Seeds of winter wheat, Triticum aestivum cv. Hereward, were washed under running water for 24 hours and then sown on vermiculite soaked with Knop's solution. They were placed in the grown chamber at 25° C. with a 16/8 h light period at 50 μmol.m^−2.s^−1. After 7 days, the first leaf was fully developed and the second leaf had started to grow. A tip section of the first leaf, approximately 35 mm long, was removed from 5 seedlings and trimmed slightly to a combined weight of 100 mg. The basal ends of the five leaf tips were placed in the wells of a microtiter polystyrene plate containing 150 μl of a cytokinin solution each. The entire plate was inserted into a plastic box lined with paper tissues soaked in distilled water to prevent leaf sections from drying out. After a 96 h incubation in the dark at 25° C., the leaves were removed and chlorophyll extracted by heating at 80° C. for 10 min in 5 ml of 80% ethanol (v/v). The sample volume was then restored to 5 ml by the addition of 80% ethanol (v/v). The absorbency of the extract was recorded at 665 nm. In addition, chlorophyll extracts from fresh leaves and leaf tips incubated in deionised water were measured. From the obtained data, the concentration with highest activity was selected for each compound tested. Relative activity of the compound at this concentration was calculated (Tab. 6). The activity obtained for 10^−4 M 6-benzylaminopurine (BAP) was postulated as 100%. The values shown are means of five replicates and the whole experiment was repeated twice. The cytokinins to be tested were dissolved in dimethylsulfoxide (DMSO) and the solution brought up to 10^−3M with distilled water. This stock was further diluted in distilled water to concentrations ranging from 10^−8M to 10^−4M.

[7] = tested on: T-lymphoblastic leukemia cell line CEM; assay: Calcein AM cytotoxicity, CEM; type: cell-based, human
From the text: as §1, §2, §3

[8] = tested on: Rosa hybrida (pot rose cultivar) explants; assay: In vitro and post vitro shoot multiplication and rooting of rose; type: in vivo
Description: The aim of this experiment was to test whether the new compounds are of practical use in tissue culture practice. The multiplication rate was investigated and the post vitro effects on rooting were examined. Rosa hybrida (pot rose cultivar) was cultured in 350 ml vessels with a screw on polycarbonate lid. Each culture vessel contained 100 ml autoclaved medium (120° C., 20 min). The cultures were maintained at 23±2° C. under a 16 h photoperiod at 40 μM m^−2 s^−1 PAR. The basal medium (BMR) contained Murashige and Skoog (1962) macroelements, microelements and vitamins, 95 μM NaFeEDTA, 555 μM myo-inositol, 111 mM sucrose, 1.332 mM glycine, 684 μM L-glutamine and 7 g/l agar. This medium was supplemented with 10 μM BA, mT, oMeOBAP or mMeOBAP (compound no. 14 and 15, respectively). The control medium didn't contain any cytokinin. After a culture period of 8 weeks, the number of induced shoots per explant was determined, as well as root number/explant and total root length/explant. The roots were removed and the explants (shoot clusters) were planted in unfertilised peat. After four weeks of acclimatising in a fog unit, root number and root length was determined.

[9] = tested on: HOS; assay: Calcein AM cytotoxicity, HOS; type: cell-based; details: Homo sapiens, HOS, 72 h
From the text: as §1
Human T-lymphoblastic leukemia cell line CEM; promyelocytic HL-60 and monocytic U937 leukemias; breast carcinoma cell lines MCF-7, BT549, MDA-MB-231; glioblastoma U87MG cells; cervical carcinoma cells HELA; sarcoma cells U2OS and Saos2; hepatocellular carcinoma HepG2; mouse fibroblasts NIH3T3; mouse immortalized bone marrow macrophages B2.4 and B10A.4; P388D1 and L1210 leukemia; B16 and B16F10 melanomas were used for routine screening of compounds. The cells were maintained in Nunc/Corning 80 cm^2 plastic tissue culture flasks and cultured in cell culture medium (DMEM with 5 g/l glucose, 2 mM glutamine, 100 U/ml penicillin, 100 μg/ml streptomycin, 10% fetal calf serum and sodium bicarbonate).
The cell suspensions that were prepared and diluted according to the particular cell type and the expected target cell density (2.500-30.000 cells per well based on cell growth characteristics) were added by pipette (80 μl) into 96/well microtiter plates. Inoculates were allowed a pre-incubation period of 24 hours at 37° C. and 5% CO2 for stabilisation. Four-fold dilutions of the intended test concentration were added at time zero in 20 μl aliquots to the microtiter plate wells. Usually, test compound was evaluated at six 4-fold dilutions. In routine testing, the highest well concentration was […], but it can be the matter of change dependent on the agent. All drug concentrations were examined in duplicates. Incubations of cells with the test compounds lasted for 72 hours at 37° C., in 5% CO2 atmosphere and 100% humidity. At the end of incubation period, the cells were assayed by using the Calcein AM. Ten microliters of the stock solution were pipetted into each well and incubated further for 1 hours. Fluorescence (FD) was measured with the Labsystem FIA Reader Fluoroscan Ascent (UK). The tumour cell survival (GI50) was calculated using the following equitation: TCS═(FDdrug exposed well/mean FDcontrol wells)×100%. The GI50 value, the drug concentration lethal to 50% of the tumour cells, was calculated from the obtained dose response curves (FIG. 1).

[10] = Ex vitro, four weeks of acclimatising

| Structure (SMILES) | Activity (%) [10^−4 mol · l^−1 BAP = 100%] [1] | IC50 ([2]; MCF7, 72 h) [µM] | activity (%) [10^−5 mol · l^−1 BAP = 100%] [3] | IC50 ([4]; HL-60, 72 h) [µM] | IC50 [5] [µM] | Activity (%) [10^−4 mol · l^−1 BAP = 100%] [6] | IC50 ([7]; Homo sapiens, 72 h) [µM] | also measured |
| --- | --- | --- | --- | --- | --- | --- | --- | --- |
| Fc1ccc(CNc2ncnc3nc[nH]c23)c(F)c1F [6-(2,3,4-trifluorobenzylamino)purine] | 76 (±4) % | > 167 | 94 (±3) % | > 167 | > 167 | 131 (±22) % | – | – |
| Fc1ccc(CNc2ncnc3nc[nH]c23)c(F)c1 [6-(2,4-difluorobenzylamino)purine] | 95 (±1) % | > 167 | 88 (±7) % | > 167 | > 167 | 139 (±2) % | 140 | IC50 ([7]; 72 hours, listed as 2,4diFBAP): 146 µM |
| COc1ccccc1CNc1ncnc2nc[nH]c12 [6-(2-methoxybenzylamino)purine] | 79 (±5) % | – | 77 (±5) % | – | – | 269 (±12) % | – | Root number per plant [8, 10]: 2.5; Total root length per plant [8, 10]: 8.5 cm; Flower number per explant ([8]; In vitro, 10 μM, 8 weeks): 0.29; Number of new shoots per explant ([8]; In vitro, 10 μM, 8 weeks): 1.0; Root number per explant ([8]; In vitro, 10 μM, 8 weeks): 0.0; Total root length per explant ([8]; In vitro, 10 μM, 8 weeks): 0.0 cm; IC50 [9]: > 167 µM |
| Clc1ccc(CNc2ncnc3nc[nH]c23)cc1Cl [6-(3,4-dichlorobenzylamino)purine] | 45 (±7) % | – | 63 (±10) % | – | – | 117 (±22) % | – | – |
| Fc1cc(F)cc(CNc2ncnc3nc[nH]c23)c1 [6-(3,5-difluorobenzylamino)purine] | 97 (±3) % | – | 108 (±2) % | – | – | 156 (±4) % | – | – |
| COc1cc(CNc2ncnc3nc[nH]c23)cc(OC)c1 [6-(3,5-dimethoxybenzylamino)purine] | – | > 167 | 1.5 (±1) % | > 167 | > 167 | 16 (±1) % | > 167 | – |
| Brc1cccc(CNc2ncnc3nc[nH]c23)c1 [6-(3-bromobenzylamino)purine] | 85 (±11) % | – | 71 (±5) % | – | – | 48 (±6) % | – | – |
| O=[N+]([O-])c1cccc(CNc2ncnc3nc[nH]c23)c1 [6-(3-nitrobenzylamino)purine] | – | > 167 | 66 (±7) % | > 167 | > 167 | 60 (±15) % | > 167 | – |
| Brc1ccc(CNc2ncnc3nc[nH]c23)cc1 [6-(4-bromobenzylamino)purine] | 15 (±9) % | – | 17 (±7) % | – | – | 30 (±15) % | – | – |
| Fc1ccc(CNc2ncnc3nc[nH]c23)cc1 [6-(4-fluorobenzylamino)purine] | 122 (±12) % | – | 44 (±4) % | – | – | 95.5 (±3.5) % | – | IC50 [9]: > 167 µM |
| Nc1ncnc2nc[nH]c12 [Adenine] | – | > 167 | – | > 167 | > 167 | – | > 167 | – |
| C/C(=C\CNc1ncnc2[nH]cnc12)CO [Zeatin, reference compound] | – | – | – | – | – | – | – | IC50 ([2]; MCF7, 72 hours): > 167 µM; IC50 ([4]; HL-60, 72 hours): > 167 µM; IC50 ([7]; Homo sapiens, 72 hours): > 167 µM |
